Test system: NCI-H211 complex spheroid viability
Experiment: Anticancer human tumor NCI-H211 cell line growth inhibition [LSD1];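 also: luminescent viability read after seven days of drug exposure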;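 as to viability, T/C: 100% = DMSO vehicle control viability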
Conditions: for IC50: curve of first compound; for viability, T/C: stronger effect = lower value
Summary of the method: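 Drug combinations with the LSD1 inhibitor iadademstat tested on tumor cells co-cultured as spheroids with endothelial cells and mesenchymal stem cells. Concentrations descended in half-log increments from clinical Cmax or 10 microM.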

[1] = second compound 0.1 µM, first compound 0.0316 µM
[2] = second compound 0.1 µM, first compound 0.1 µM
[3] = second compound 0.1 µM, first compound 0.316 µM
[4] = second compound 0.1 µM, first compound 1 µM
[5] = second compound 0.1 µM, first compound 3.16 µM
[6] = second compound 0.1 µM, first compound 10 µM
[7] = second compound 0.316 µM, first compound 0.0316 µM
[8] = second compound 0.316 µM, first compound 0.1 µM
[9] = second compound 0.316 µM, first compound 0.316 µM
[10] = second compound 0.316 µM, first compound 1 µM
[11] = second compound 0.316 µM, first compound 3.16 µM
[12] = second compound 0.316 µM, first compound 10 µM
[13] = second compound 1 µM, first compound 0.0316 µM
[14] = second compound 1 µM, first compound 0.1 µM
[15] = second compound 1 µM, first compound 0.316 µM
[16] = second compound 1 µM, first compound 1 µM
[17] = second compound 1 µM, first compound 3.16 µM
[18] = second compound 1 µM, first compound 10 µM
[19] = second compound 3.16 µM, first compound 0.0316 µM
[20] = second compound 3.16 µM, first compound 0.1 µM
[21] = second compound 3.16 µM, first compound 0.316 µM
[22] = second compound 3.16 µM, first compound 1 µM
[23] = second compound 3.16 µM, first compound 3.16 µM
[24] = second compound 3.16 µM, first compound 10 µM
[25] = second compound 10 µM, first compound 0.0316 µM
[26] = second compound 10 µM, first compound 0.1 µM
[27] = second compound 10 µM, first compound 0.316 µM
[28] = second compound 10 µM, first compound 1 µM
[29] = second compound 10 µM, first compound 3.16 µM
[30] = second compound 10 µM, first compound 10 µM
[31] = second compound 0.1 µM, first compound 0.00949 µM
[32] = second compound 0.1 µM, first compound 0.03 µM
[33] = second compound 0.1 µM, first compound 0.0949 µM
[34] = second compound 0.1 µM, first compound 0.3 µM
[35] = second compound 0.316 µM, first compound 0.00949 µM
[36] = second compound 0.316 µM, first compound 0.03 µM
[37] = second compound 0.316 µM, first compound 0.0949 µM
[38] = second compound 0.316 µM, first compound 0.3 µM
[39] = second compound 1 µM, first compound 0.00949 µM
[40] = second compound 1 µM, first compound 0.03 µM
[41] = second compound 1 µM, first compound 0.0949 µM
[42] = second compound 1 µM, first compound 0.3 µM
[43] = second compound 3.16 µM, first compound 0.00949 µM
[44] = second compound 3.16 µM, first compound 0.03 µM
[45] = second compound 3.16 µM, first compound 0.0949 µM
[46] = second compound 3.16 µM, first compound 0.3 µM
[47] = second compound 10 µM, first compound 0.00949 µM
[48] = second compound 10 µM, first compound 0.03 µM
[49] = second compound 10 µM, first compound 0.0949 µM
[50] = second compound 10 µM, first compound 0.3 µM

CC1(C)CCC(CN2CCN(c3ccc(C(=O)NS(=O)(=O)c4ccc(NCC5CCOCC5)c([N+](=O)[O-])c4)c(Oc4cnc5[nH]ccc5c4)c3)CC2)=C(c2ccc(Cl)cc2)C1 + NC1CCC(NC2CC2c2ccccc2)CC1
IC50 (second compound 0.1 µM): 5790 nM
IC50 (second compound 0.316 µM): 5770 nM
IC50 (second compound 1 µM): > 10000 nM
IC50 (second compound 3.16 µM): < 31.6 nM
IC50 (second compound 10 µM): < 31.6 nM
viability, T/C [1]: 55.3%
viability, T/C [2]: 61.6%
viability, T/C [3]: 73.5%
viability, T/C [4]: 102%
viability, T/C [5]: 86.2%
viability, T/C [6]: 26.8%
viability, T/C [7]: 64.8%
viability, T/C [8]: 60.5%
viability, T/C [9]: 71.2%
viability, T/C [10]: 84.1%
viability, T/C [11]: 101%
viability, T/C [12]: 26%
viability, T/C [13]: 48.6%
viability, T/C [14]: 59%
viability, T/C [15]: 57.6%
viability, T/C [16]: 81.3%
viability, T/C [17]: 93.5%
viability, T/C [18]: 24.7%
viability, T/C [19]: 41.9%
viability, T/C [20]: 44.4%
viability, T/C [21]: 57.9%
viability, T/C [22]: 75.1%
viability, T/C [23]: 88.4%
viability, T/C [24]: 21.1%
viability, T/C [25]: 25.1%
viability, T/C [26]: 24.9%
viability, T/C [27]: 30%
viability, T/C [28]: 33.8%
viability, T/C [29]: 52.6%
viability, T/C [30]: 19.8%

CC1COCCN1c1cc(C2(S(C)(=N)=O)CC2)nc(-c2ccnc3[nH]ccc23)n1 (stereo not given) + NC1CCC(NC2CC2c2ccccc2)CC1
IC50 (second compound 0.1 µM): 331 nM
IC50 (second compound 0.316 µM): 184 nM
IC50 (second compound 1 µM): 297 nM
IC50 (second compound 3.16 µM): 188 nM
IC50 (second compound 10 µM): < 31.6 nM
viability, T/C [1]: 67.7%
viability, T/C [2]: 64.1%
viability, T/C [3]: 51.6%
viability, T/C [4]: 16.1%
viability, T/C [5]: 3.34%
viability, T/C [6]: 2.31%
viability, T/C [7]: 79.6%
viability, T/C [8]: 63%
viability, T/C [9]: 38.7%
viability, T/C [10]: 13.6%
viability, T/C [11]: 3.19%
viability, T/C [12]: 2.33%
viability, T/C [13]: 66.4%
viability, T/C [14]: 67.5%
viability, T/C [15]: 48.4%
viability, T/C [16]: 16.4%
viability, T/C [17]: 3.53%
viability, T/C [18]: 2.09%
viability, T/C [19]: 66.5%
viability, T/C [20]: 55.5%
viability, T/C [21]: 44.5%
viability, T/C [22]: 17.2%
viability, T/C [23]: 2.59%
viability, T/C [24]: 1.55%
viability, T/C [25]: 40.9%
viability, T/C [26]: 39%
viability, T/C [27]: 25.4%
viability, T/C [28]: 9.13%
viability, T/C [29]: 1.75%
viability, T/C [30]: 1.04%

CCN(c1cc(-c2ccc(CN3CCOCC3)cc2)cc(C(=O)NCc2c(C)cc(C)[nH]c2=O)c1C)C1CCOCC1 + NC1CCC(NC2CC2c2ccccc2)CC1
IC50 (second compound 0.1 µM): > 3000 nM
IC50 (second compound 0.316 µM): > 3000 nM
IC50 (second compound 1 µM): > 3000 nM
IC50 (second compound 3.16 µM): 3000 nM
IC50 (second compound 10 µM): < 9.49 nM
viability, T/C [31]: 76%
viability, T/C [32]: 60.9%
viability, T/C [33]: 66.9%
viability, T/C [34]: 50.1%
viability, T/C (second compound 0.1 µM, first compound 0.949 µM): 56.8%
viability, T/C (second compound 0.1 µM, first compound 3 µM): 64.2%
viability, T/C [35]: 66.3%
viability, T/C [36]: 68.5%
viability, T/C [37]: 72.2%
viability, T/C [38]: 59.9%
viability, T/C (second compound 0.316 µM, first compound 0.949 µM): 55.1%
viability, T/C (second compound 0.316 µM, first compound 3 µM): 60%
viability, T/C [39]: 60.3%
viability, T/C [40]: 63.8%
viability, T/C [41]: 55.4%
viability, T/C [42]: 63.7%
viability, T/C (second compound 1 µM, first compound 0.949 µM): 58.3%
viability, T/C (second compound 1 µM, first compound 3 µM): 59.1%
viability, T/C [43]: 60%
viability, T/C [44]: 48.4%
viability, T/C [45]: 54.3%
viability, T/C [46]: 49.9%
viability, T/C (second compound 3.16 µM, first compound 0.949 µM): 48.7%
viability, T/C (second compound 3.16 µM, first compound 3 µM): 54.9%
viability, T/C [47]: 40.4%
viability, T/C [48]: 33.3%
viability, T/C [49]: 30.8%
viability, T/C [50]: 26%
viability, T/C (second compound 10 µM, first compound 0.949 µM): 21.1%
viability, T/C (second compound 10 µM, first compound 3 µM): 23.7%

Nc1ncn(C2CC(O)C(CO)S2)c(=O)n1 (stereo not given) + NC1CCC(NC2CC2c2ccccc2)CC1
IC50 (second compound 0.1 µM): < 0.949 nM
IC50 (second compound 0.316 µM): 1.19 nM
IC50 (second compound 1 µM): 1.01 nM
IC50 (second compound 3.16 µM): < 0.949 nM
IC50 (second compound 10 µM): < 0.949 nM
viability, T/C (second compound 0.1 µM, first compound 0.000949 µM): 47.8%
viability, T/C (second compound 0.1 µM, first compound 0.003 µM): 27.1%
viability, T/C [31]: 8.74%
viability, T/C [32]: 3.26%
viability, T/C [33]: 1.8%
viability, T/C [34]: 1.91%
viability, T/C (second compound 0.316 µM, first compound 0.000949 µM): 55.8%
viability, T/C (second compound 0.316 µM, first compound 0.003 µM): 26.6%
viability, T/C [35]: 12.1%
viability, T/C [36]: 3.64%
viability, T/C [37]: 2.15%
viability, T/C [38]: 1.98%
viability, T/C (second compound 1 µM, first compound 0.000949 µM): 51.4%
viability, T/C (second compound 1 µM, first compound 0.003 µM): 26.6%
viability, T/C [39]: 8.75%
viability, T/C [40]: 3.07%
viability, T/C [41]: 2.09%
viability, T/C [42]: 1.41%
viability, T/C (second compound 3.16 µM, first compound 0.000949 µM): 47.7%
viability, T/C (second compound 3.16 µM, first compound 0.003 µM): 23.7%
viability, T/C [43]: 7.85%
viability, T/C [44]: 2.42%
viability, T/C [45]: 1.84%
viability, T/C [46]: 1.65%
viability, T/C (second compound 10 µM, first compound 0.000949 µM): 25.3%
viability, T/C (second compound 10 µM, first compound 0.003 µM): 9.03%
viability, T/C [47]: 3.09%
viability, T/C [48]: 1.41%
viability, T/C [49]: 0.7%
viability, T/C [50]: 0.58%

O=C(C=Cn1cnc(-c2cc(C(F)(F)F)cc(C(F)(F)F)c2)n1)NNc1cnccn1 + NC1CCC(NC2CC2c2ccccc2)CC1
IC50 (second compound 0.1 µM): < 3.16 nM
IC50 (second compound 0.316 µM): < 3.16 nM
IC50 (second compound 1 µM): < 3.16 nM
IC50 (second compound 3.16 µM): < 3.16 nM
IC50 (second compound 10 µM): < 3.16 nM
viability, T/C (second compound 0.1 µM, first compound 0.00316 µM): 33.4%
viability, T/C (second compound 0.1 µM, first compound 0.01 µM): 20.6%
viability, T/C [1]: 11.6%
viability, T/C [2]: 6.71%
viability, T/C [3]: 2.42%
viability, T/C [4]: 1.48%
viability, T/C (second compound 0.316 µM, first compound 0.00316 µM): 40.1%
viability, T/C (second compound 0.316 µM, first compound 0.01 µM): 23.5%
viability, T/C [7]: 11.2%
viability, T/C [8]: 6.77%
viability, T/C [9]: 2.16%
viability, T/C [10]: 8.93%
viability, T/C (second compound 1 µM, first compound 0.00316 µM): 41.4%
viability, T/C (second compound 1 µM, first compound 0.01 µM): 21.7%
viability, T/C [13]: 9.68%
viability, T/C [14]: 5.65%
viability, T/C [15]: 2.43%
viability, T/C [16]: 1.5%
viability, T/C (second compound 3.16 µM, first compound 0.00316 µM): 32.9%
viability, T/C (second compound 3.16 µM, first compound 0.01 µM): 22.1%
viability, T/C [19]: 11%
viability, T/C [20]: 5.74%
viability, T/C [21]: 2.43%
viability, T/C [22]: 1.51%
viability, T/C (second compound 10 µM, first compound 0.00316 µM): 24.4%
viability, T/C (second compound 10 µM, first compound 0.01 µM): 15.7%
viability, T/C [25]: 7.59%
viability, T/C [26]: 3.68%
viability, T/C [27]: 1.66%
viability, T/C [28]: 1.3%
